Data as given in patent US10323063B2, “Advanced macromolecule transduction domain (aMTD) sequences for improvement of cell-permeability, polynucleotides encoding the same, method to identify the unique features of aMTDs comprising the same, method to develop the aMTD sequences comprising the same” (CELLIVERY THERAPEUTICS, INC., priority 2014, dated 2019).

System: RAW 264.7 cells
Test: Quantitative cell-permeability of FITC-labeled aMTD- or rPeptide-fused CRA recombinant proteins by flow cytometry
Assay type: cell-based
Conditions: for Relative Ratio to aMTD AVE: cell-permeability of rPeptide relative to the average of 240 aMTDs
Source text: The aMTDs and rPeptides were fluorescently labeled and compared based on the critical factors for cell-permeability by using flow cytometry and confocal laser scanning microscopy (FIG. 5 to 8). The cellular uptake of the peptide-fused non-functional cargo recombinant proteins could quantitatively be evaluated in flow cytometry, while confocal laser scanning microscopy allows intracellular uptake to be assessed visually. The analysis included recombinant proteins fused to a negative control [rP38] that has opposite characteristics (hydrophilic and aromatic sequence: YYNQSTCGGQCY) to the aMTDs (hydrophobic and aliphatic sequences). Relative cell-permeability (relative fold) of aMTDs to the negative control was also analyzed (TABLE 39 and FIG. 9).
Geometric means of negative control (histidine-tagged rP38-fused CRA recombinant protein) subtracted by that of naked protein (histidine-tagged CRA protein) lacking any peptide (rP38 or aMTD) was standardized as relative fold of 1.
For quantitative cell-permeability, the aMTD- or rPeptide-fused recombinant proteins were conjugated to fluorescein isothiocyanate (FITC) according to the manufacturer's instructions (Sigma-Aldrich, St. Louis, Mo.). RAW 264.7 cells were treated with 10 μM FITC-labeled recombinant proteins for 1 hour at 37° C., washed three times with cold PBS, treated with 0.25% tripsin/EDTA (Sigma-Aldrich, St. Louis, Mo.) for 20 minutes at 37° C. to remove cell-surface bound proteins. Cell-permeability of these recombinant proteins were analyzed by flow cytometry (Guava, Millipore, Darmstadt, Germany) using the FlowJo cytometric analysis software (FIG. 5 to 6). The relative cell-permeability of aMTDs were measured and compared with the negative control (rP38) and reference hydrophobic CPPs (MTM12 and MTD85) (TABLE 47).

[1] = cell-permeability of aMTD-fused CRA recombinant protein relative to negative control (A: rP38)
[2] = cell-permeability of aMTD-fused CRA recombinant protein relative to reference CPP (C: MTD85)
[3] = cell-permeability of aMTD-fused CRA recombinant protein relative to reference CPP (B: MTM12)
[4] = cell-permeability relative to reference CPP MTM12 (B type)
[5] = cell-permeability of aMTD-fused CRA recombinant protein relative to negative control rP38 (A type)
[6] = cell-permeability relative to reference CPP MTD85 (C type)

484 (LAVVLAAPAIVP; Advanced Macromolecule Transduction Domain (aMTD) Sequences for Improvement of Cell-Permeability) [compound 484]
Relative Ratio (Fold) A [1]: 15.6 Fold

501 (VIVALAVPALAP; Advanced Macromolecule Transduction Domain (aMTD) Sequences for Improvement of Cell-Permeability) [compound 501]
Relative Ratio (Fold) C [2]: 7.3 Fold

503 (AAIIIVLPAALP; Advanced Macromolecule Transduction Domain (aMTD) Sequences for Improvement of Cell-Permeability) [compound 503]
Relative Ratio (Fold) A [1]: 17.6 Fold | Relative Ratio (Fold) B [3]: 11.8 Fold | Relative Ratio (Fold) C [2]: 5.9 Fold

543 (LLAALIAPAALP; Advanced Macromolecule Transduction Domain (aMTD) Sequences for Improvement of Cell-Permeability) [compound 543]
Relative Ratio (Fold) B [4]: 7.8 Fold

563 (ALAVIVVPALAP; Advanced Macromolecule Transduction Domain (aMTD) Sequences for Improvement of Cell-Permeability) [compound 563]
Relative Ratio (Fold) A [1]: 47.1 Fold | Relative Ratio (Fold) B [3]: 31.4 Fold | Relative Ratio (Fold) C [2]: 15.9 Fold

606 (AAAIAAIPIIIP) [compound 606]
Relative Ratio to aMTD AVE: 0.20

625 (ILAAAAAPLIVP; Advanced Macromolecule Transduction Domain (aMTD) Sequences for Improvement of Cell-Permeability) [compound 625]
Relative Ratio (Fold) A [1]: 20.9 Fold

705 (IVAVALLPALAP; Advanced Macromolecule Transduction Domain (aMTD) Sequences for Improvement of Cell-Permeability) [compound 705]
Relative Ratio (Fold) A [1]: 28.6 Fold

747 (VALLAIAPALAP; Advanced Macromolecule Transduction Domain (aMTD) Sequences for Improvement of Cell-Permeability) [compound 747]
Relative Ratio (Fold) A [1]: 22.0 Fold | Relative Ratio (Fold) B [3]: 14.8 Fold | Relative Ratio (Fold) C [2]: 7.5 Fold

772 (LPVAPVIPIIVP) [compound 772]
Relative Ratio to aMTD AVE: 0.16

787 (AVALVPVIVAAP; Advanced Macromolecule Transduction Domain (aMTD) Sequences for Improvement of Cell-Permeability) [compound 787]
Relative Ratio (Fold) A [1]: 29.3 Fold | Relative Ratio (Fold) B [3]: 19.6 Fold | Relative Ratio (Fold) C [2]: 9.9 Fold

808 (LVVLAAAPLAVP; Advanced Macromolecule Transduction Domain (aMTD) Sequences for Improvement of Cell-Permeability) [compound 808]
Relative Ratio (Fold) A [5]: 11.5 Fold | Relative Ratio (Fold) C [6]: 3.9 Fold | Relative Ratio (Fold) B [4]: 7.6 Fold

825 (IVAVIVAPAVAP; Advanced Macromolecule Transduction Domain (aMTD) Sequences for Improvement of Cell-Permeability) [compound 825]
Relative Ratio (Fold) C [2]: 23.6 Fold

826 (LVALAAPIIAVP; Advanced Macromolecule Transduction Domain (aMTD) Sequences for Improvement of Cell-Permeability) [compound 826]
Relative Ratio (Fold) C [2]: 16.6 Fold

849 (AVILLAPLIAAP; Advanced Macromolecule Transduction Domain (aMTD) Sequences for Improvement of Cell-Permeability) [compound 849]
Relative Ratio (Fold) C [6]: 2.8 Fold

877 (VAIIAVPAVVAP; Advanced Macromolecule Transduction Domain (aMTD) Sequences for Improvement of Cell-Permeability) [compound 877]
Relative Ratio (Fold) A [1]: 14.0 Fold | Relative Ratio (Fold) B [3]: 9.4 Fold | Relative Ratio (Fold) C [2]: 4.7 Fold

879 (AAIVLLPAVVVP; Advanced Macromolecule Transduction Domain (aMTD) Sequences for Improvement of Cell-Permeability) [compound 879]
Relative Ratio (Fold) A [5]: 7.2 Fold | Relative Ratio (Fold) C [6]: 2.4 Fold | Relative Ratio (Fold) B [4]: 4.8 Fold

908 (VALALAPVVVAP; Advanced Macromolecule Transduction Domain (aMTD) Sequences for Improvement of Cell-Permeability) [compound 908]
Relative Ratio (Fold) A [1]: 150.6 Fold | Relative Ratio (Fold) B [3]: 100.8 Fold | Relative Ratio (Fold) C [2]: 50.9 Fold

910 (VAALLPAVVVAP; Advanced Macromolecule Transduction Domain (aMTD) Sequences for Improvement of Cell-Permeability) [compound 910]
Relative Ratio (Fold) A [1]: 148.5 Fold
